Columns and labels:
Test in all cases: relative viability (nuclei count vs DMSO), 5 days (fraction); higher = more cells survive
NCI-H1755 = test system: NCI-H1755
Procedure, shortened: (§1)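 Lung cancer cell lines, seeded in 1536-well plates, were treated the following day by pin tool with a single drug or with five library-drug doses (not always all listed) in √10 steps on top of a fixed anchor-drug dose. Cells were fixed and nuclei stained in one step after 5 days, and nuclei were counted. Relative viability is the nuclei count for treated wells divided by that for vehicle wells, reported as medians of duplicate plates.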

HCC-366 = test system: HCC-366
Procedure, shortened: as §1

SK-LU-1 = test system: SK-LU-1
Procedure, shortened: as §1

NCI-H522 = test system: NCI-H522
Procedure, shortened: as §1

HCC-827 = test system: HCC-827
Procedure, shortened: as §1

NCI-H460 = test system: NCI-H460
Procedure, shortened: as §1

NCI-H23 = test system: NCI-H23
Procedure, shortened: as §1

EMC-BAC-2 = test system: EMC-BAC-2
Procedure, shortened: as §1

A-427 = test system: A-427
Procedure, shortened: as §1

CAL-12T = test system: CAL-12T
Procedure, shortened: as §1

HOP-62 = test system: HOP-62
Procedure, shortened: as §1

NCI-H1975 = test system: NCI-H1975
Procedure, shortened: as §1

HARA = test system: HARA
Procedure, shortened: as §1

NCI-H1355 = test system: NCI-H1355
Procedure, shortened: as §1

NCI-H1437 = test system: NCI-H1437
Procedure, shortened: as §1

LCLC-103H = test system: LCLC-103H
Procedure, shortened: as §1

NCI-H727 = test system: NCI-H727
Procedure, shortened: as §1

NCI-H1915 = test system: NCI-H1915
Procedure, shortened: as §1

NCI-H1792 = test system: NCI-H1792
Procedure, shortened: as §1

SW 1573 = test system: SW 1573
Procedure, shortened: as §1

COR-L 105 = test system: COR-L 105
Procedure, shortened: as §1

NCI-H1395 = test system: NCI-H1395
Procedure, shortened: as §1

NCI-H2009 = test system: NCI-H2009
Procedure, shortened: as §1

NCI-H2228 = test system: NCI-H2228
Procedure, shortened: as §1

COc1cc(N2CCC(C(N)=O)CC2)ccc1Nc1nc(N)c(Cl)c(Nc2ccccc2S(=O)(=O)C(C)C)n1 [HG-5-88-01] + O=C(c1cc(Cc2n[nH]c(=O)c3ccccc23)ccc1F)N1CCN(C(=O)C2CC2)CC1 [Olaparib] (partner 8 µM)
relative viability (NCI-H1755; first compound 0.04 µM): 0.811
relative viability (NCI-H1755; first compound 0.1265 µM): 0.869
relative viability (NCI-H1755; first compound 0.4 µM): 0.874
relative viability (NCI-H1755; first compound 1.265 µM): 0.849
relative viability (NCI-H1755; first compound 4 µM): 0.928
relative viability (HCC-366; first compound 0.04 µM): 0.385
relative viability (HCC-366; first compound 0.1265 µM): 0.391
relative viability (HCC-366; first compound 0.4 µM): 0.352
relative viability (HCC-366; first compound 1.265 µM): 0.39
relative viability (HCC-366; first compound 4 µM): 0.38
relative viability (SK-LU-1; first compound 0.04 µM): 0.447
relative viability (SK-LU-1; first compound 0.1265 µM): 0.442
relative viability (SK-LU-1; first compound 0.4 µM): 0.444
relative viability (SK-LU-1; first compound 1.265 µM): 0.417
relative viability (SK-LU-1; first compound 4 µM): 0.295
relative viability (NCI-H522; first compound 0.04 µM): 0.724
relative viability (NCI-H522; first compound 0.1265 µM): 0.665
relative viability (NCI-H522; first compound 0.4 µM): 0.761
relative viability (NCI-H522; first compound 1.265 µM): 0.574
relative viability (NCI-H522; first compound 4 µM): 0.594
relative viability (HCC-827; first compound 0.04 µM): 0.695
relative viability (HCC-827; first compound 0.1265 µM): 0.676
relative viability (HCC-827; first compound 0.4 µM): 0.363
relative viability (HCC-827; first compound 1.265 µM): 0.203
relative viability (HCC-827; first compound 4 µM): 0.24
relative viability (NCI-H460; first compound 0.04 µM): 0.415
relative viability (NCI-H460; first compound 0.1265 µM): 0.498
relative viability (NCI-H460; first compound 0.4 µM): 0.388
relative viability (NCI-H460; first compound 1.265 µM): 0.356
relative viability (NCI-H460; first compound 4 µM): 0.503
relative viability (NCI-H23; first compound 0.04 µM): 0.321
relative viability (NCI-H23; first compound 0.1265 µM): 0.279
relative viability (NCI-H23; first compound 0.4 µM): 0.303
relative viability (NCI-H23; first compound 1.265 µM): 0.334
relative viability (NCI-H23; first compound 4 µM): 0.194
relative viability (EMC-BAC-2; first compound 0.04 µM): 0.482
relative viability (EMC-BAC-2; first compound 0.1265 µM): 0.526
relative viability (EMC-BAC-2; first compound 0.4 µM): 0.615
relative viability (EMC-BAC-2; first compound 1.265 µM): 0.459
relative viability (EMC-BAC-2; first compound 4 µM): 0.46
relative viability (A-427; first compound 0.04 µM): 0.652
relative viability (A-427; first compound 0.1265 µM): 0.807
relative viability (A-427; first compound 0.4 µM): 0.762
relative viability (A-427; first compound 1.265 µM): 0.746
relative viability (A-427; first compound 4 µM): 0.513
relative viability (CAL-12T; first compound 0.04 µM): 0.733
relative viability (CAL-12T; first compound 0.1265 µM): 0.779
relative viability (CAL-12T; first compound 0.4 µM): 0.787
relative viability (CAL-12T; first compound 1.265 µM): 0.667
relative viability (CAL-12T; first compound 4 µM): 0.319
relative viability (HOP-62; first compound 0.04 µM): 0.426
relative viability (HOP-62; first compound 0.1265 µM): 0.511
relative viability (HOP-62; first compound 0.4 µM): 0.396
relative viability (HOP-62; first compound 1.265 µM): 0.538
relative viability (HOP-62; first compound 4 µM): 0.283
relative viability (NCI-H1975; first compound 0.04 µM): 0.834
relative viability (NCI-H1975; first compound 0.1265 µM): 0.822
relative viability (NCI-H1975; first compound 0.4 µM): 0.782
relative viability (NCI-H1975; first compound 1.265 µM): 0.715
relative viability (NCI-H1975; first compound 4 µM): 0.419
relative viability (HARA; first compound 0.04 µM): 1.07
relative viability (HARA; first compound 0.1265 µM): 1.02
relative viability (HARA; first compound 0.4 µM): 0.456
relative viability (HARA; first compound 1.265 µM): 0.526
relative viability (HARA; first compound 4 µM): 0.862
relative viability (NCI-H1355; first compound 0.04 µM): 0.833
relative viability (NCI-H1355; first compound 0.1265 µM): 0.768
relative viability (NCI-H1355; first compound 0.4 µM): 0.74
relative viability (NCI-H1355; first compound 1.265 µM): 0.706
relative viability (NCI-H1355; first compound 4 µM): 0.584
relative viability (NCI-H1437; first compound 0.04 µM): 0.645
relative viability (NCI-H1437; first compound 0.1265 µM): 0.609
relative viability (NCI-H1437; first compound 0.4 µM): 0.607
relative viability (NCI-H1437; first compound 1.265 µM): 0.631
relative viability (NCI-H1437; first compound 4 µM): 0.557
relative viability (LCLC-103H; first compound 0.04 µM): 0.714
relative viability (LCLC-103H; first compound 0.1265 µM): 0.748
relative viability (LCLC-103H; first compound 0.4 µM): 0.697
relative viability (LCLC-103H; first compound 1.265 µM): 0.654
relative viability (LCLC-103H; first compound 4 µM): 0.719
relative viability (NCI-H727; first compound 0.04 µM): 0.715
relative viability (NCI-H727; first compound 0.1265 µM): 0.705
relative viability (NCI-H727; first compound 0.4 µM): 0.827
relative viability (NCI-H727; first compound 4 µM): 0.572
relative viability (NCI-H1915; first compound 0.04 µM): 0.259
relative viability (NCI-H1915; first compound 0.1265 µM): 0.25
relative viability (NCI-H1915; first compound 0.4 µM): 0.304
relative viability (NCI-H1915; first compound 1.265 µM): 0.266
relative viability (NCI-H1915; first compound 4 µM): 0.248
relative viability (NCI-H1792; first compound 0.04 µM): 0.513
relative viability (NCI-H1792; first compound 0.1265 µM): 0.424
relative viability (NCI-H1792; first compound 0.4 µM): 0.434
relative viability (NCI-H1792; first compound 1.265 µM): 0.397
relative viability (NCI-H1792; first compound 4 µM): 0.484
relative viability (SW 1573; first compound 0.04 µM): 0.562
relative viability (SW 1573; first compound 0.1265 µM): 0.554
relative viability (SW 1573; first compound 0.4 µM): 0.438
relative viability (SW 1573; first compound 1.265 µM): 0.368
relative viability (SW 1573; first compound 4 µM): 0.375
relative viability (COR-L 105; first compound 0.04 µM): 0.752
relative viability (COR-L 105; first compound 0.1265 µM): 0.765
relative viability (COR-L 105; first compound 0.4 µM): 0.708
relative viability (COR-L 105; first compound 1.265 µM): 0.692
relative viability (COR-L 105; first compound 4 µM): 0.683
relative viability (NCI-H1395; first compound 0.04 µM): 0.499
relative viability (NCI-H1395; first compound 0.1265 µM): 0.467
relative viability (NCI-H1395; first compound 0.4 µM): 0.48
relative viability (NCI-H1395; first compound 1.265 µM): 0.472
relative viability (NCI-H1395; first compound 4 µM): 0.487
relative viability (NCI-H2009; first compound 0.04 µM): 0.684
relative viability (NCI-H2009; first compound 0.1265 µM): 0.651
relative viability (NCI-H2009; first compound 0.4 µM): 0.687
relative viability (NCI-H2009; first compound 1.265 µM): 0.685
relative viability (NCI-H2009; first compound 4 µM): 0.684
relative viability (NCI-H2228; first compound 0.04 µM): 0.538
relative viability (NCI-H2228; first compound 0.1265 µM): 0.36
relative viability (NCI-H2228; first compound 0.4 µM): 0.424
relative viability (NCI-H2228; first compound 1.265 µM): 0.227
relative viability (NCI-H2228; first compound 4 µM): 0.253
